According to patent US20200397332A1, “NON-INVASIVE METHOD AND DEVICE FOR DETERMINING DRUG CONCENTRATIONS IN BLOOD” (priority 2019, published 2020):

Legend:
[1] = caffeine: one cup of coffee (100 mg caffeine); alcohol: no sign of alcohol in blood; cited from earlier work
clinical [2] = settings: human, in vivo, po
Protocol: The Tmax can be identified from this dependence.
FIG. 11 is illustrative of the relative change in charge of the ions inside the arterial blood stream vs time after ingesting 500 mg of acetaminophen. […] The Tmax can be identified from this graph, and is detected as being approximately 30 min.
The initial dosage is Din is ˜500 mg of acetaminophen. The maximum drug concentration in arterial blood stream is 60 mg/L at Din=500 mg ([…]) and Tmax˜30 min from the measurements from the GM sensor.
Vs. The next step is to calculate (Vs0−Vs)0.

[3] = Din=500 mg acetaminophen; taken from known drug data; cited from earlier work
[4] = Din=50 mg caffeine; taken from known drug data; cited from earlier work
clinical [5] = settings: human, in vivo, po; remark: listed apart in the source
Description: FIG. 6 is illustrative of the GM magnetic signal vs time at different pressures by adjusting the pressure applied by the pressure cuff 12 on the arm of the patient. Initially, the cuff pressure is zero and the GM signal is flat. After around 10 seconds, the cuff pressure is increased and after 20 seconds, the cuff pressure reaches approximately 120 mm Hg. […] The GM signal is almost flat from 20 seconds to 60 seconds because the flow of blood through the blood vessel is stopped. When the cuff pressure was released quickly at about 60 seconds, the GM signal returned to the level similar to the initial measurement. […] At the pressure of 120 mm Hg or greater there is, no arterial blood flow and no electrical current. The difference of two levels in the beginning and around 60 seconds gives the absolute value of the magnetic field which is detected by the GM sensor. […]
Basic data for the detected drugs includes the initial dosages of the drug Din which depend on the maximum concentration Cmax in blood at a certain time Tmax. […] The absolute value of the drug concentration is determined based on the measured signal Vs and time Tmax at which the concentration of drug is detected at a maximum value in the blood stream.
The signal Vs was measured at different times after ingestion of the caffeine to verify the time dependence of the drug concentration in blood. […]

Row | SMILES | time after which the level in blood has declined to zero [1] | Tmax (clinical [2]) [h] | Cmax, maximum drug concentration in arterial blood stream [3] [µg/mL] | Cmax, maximum drug concentration in the arterial blood stream [4] | Tmax (clinical [5]) [h]
1 | CCO [alcohol] | about 12 hours |  |  |  | 
2 | CC(=O)Nc1ccc(O)cc1 [acetaminophen] |  | ~0.5 | 60 |  | 
3 | Cn1c(=O)c2c(ncn2C)n(C)c1=O [caffeine] | about 4 hours |  |  | about 1 mg/L | ~2
